Laboratory results reported in US20230321127A1, “SPERM MOTILITY IMPROVING AGENT AND SPERM MOTILITY IMPROVING METHOD” (MIRAILAB BIOSCIENCE INC., priority 2020, published 2023).

Tested on: swine sperms
Experiment: Swine sperm motility analyzed by CASA during incubation with NMN alone or NMN+PQQ
Assay type: cell-based
Experimental: Upon arrival of a pack containing swine diluted semen (sperm concentration (total sperm count) 30,000,000/ml, HIRO-SWINE B solution (HIROSHIMA CRYO-PRESERVATION SERVICE) was used as a diluent) provided by Oita Prefectural Agriculture, Forestry and Fisheries Research Center, the pack was immediately stored in an incubator at 15° C. The next day, 5 ml of the above semen from each pack was transferred to a 15 ml centrifuge tube, NMN was added to concentrations from 0.1 to 100 μM (0.1 μM, 1 μM, 10 μM, 100 μM) using HIRO-SWINE B solution as a culture medium, and they were incubated at 37° C. for up to 6 hours. For some diluted semen, pyrrolo-quinoline quinone (PQQ) (MITSUBISHI GAS CHEMICAL COMPANY, INC) was added to a concentration of 100 nM, in addition to NMN or without the addition of NMN, and it was incubated in the same manner. Sperms were taken out at 0, 2, 4, and 6 hours after the start of incubation, and their sperm motility was analyzed using CASA (HT CASA-Ceros II (product name), Hamilton Thorne, Inc.). […] The error bars in FIG. 2 represent standard errors. Sperm motion loci were also photographed by phase contrast microscopy at 2, 4, and 6 hours after the start of incubation and the photographs were shown in FIG. 3.

[1] = NMN alone addition zone (PQQ-), 0.1-100 μM, effect observed up to 4 hours later
[2] = NMN alone addition zone, 6 hours later

SMILES: NC(=O)c1ccc[n+]([C@@H]2O[C@H](COP(=O)([O-])O)[C@@H](O)[C@H]2O)c1 [NMN, nicotinamide mononucleotide]
- total moment (proportion of sperms in motion to total sperms counted) (NMN 0.1-100 μM added to swine diluted semen, 37° C., up to 6 hours): not affected
- straight (forward) moment [1]: significantly increased
- straight (forward) speed [1]: significantly increased
- improving effect on the straight moment [2]: disappeared
- improving effect on the straight speed [2]: disappeared
